The text below walks through data of ChEMBL document CHEMBL1828504, “Synthesis and SAR optimization of diketo acid pharmacophore for HCV NS5B polymerase inhibition” (Eur J Med Chem, 2011).

The experiment can be described thus: Inhibition of recombinant HCV NS5B Cdelta21 polymerase assessed as [alpha-32P]UMP incorporation into RNA after 1 hr by liquid scintillation counting. Details: species or system Hepacivirus hominis.
By IC50 is commonly meant the concentration that inhibits the measured activity by half. As to `O=C(O)/C(O)=C/C(=O)c1c(F)cccc1F`, the IC50 was 17 µM.

`N#Cc1cccc(C(=O)/C=C(\O)C(=O)O)c1`: the IC50 was 39.7 µM.

Turning to `Cc1ccc(C(=O)/C=C(\O)C(=O)O)s1`, the concentration for half-maximal inhibition (IC50) is 55.5 µM.

For `O=C(O)/C(O)=C/C(=O)c1ccc(Cl)cc1Cl`, the IC50 stood at 49.7 µM.

In the case of `O=C(O)/C(O)=C/C(=O)c1ccco1`, the IC50 came out at 21.8 µM.

Turning to `Cc1ccccc1C(=O)/C=C(\O)C(=O)O`, the IC50 is 6.9 µM.

Consider `O=C(O)/C(O)=C/C(=O)c1cc2ccccc2s1`, for which the IC50 was determined as 37.7 µM.

Regarding `O=C(O)/C(O)=C/C(=O)c1ccc(-c2ccccc2)cc1`, the IC50 was determined as 20.9 µM.

Take `Cc1ccsc1C(=O)/C=C(\O)C(=O)O`: the IC50 came to 7.5 µM.

Take `O=C(O)/C(O)=C/C(=O)c1cc2cc(Br)ccc2o1`: the IC50 came out at 8.2 µM.

Consider `O=C(O)/C(O)=C/C(=O)c1ccc(Br)s1`, for which the IC50 was 31.4 µM.

In the case of `O=C(O)/C(O)=C/C(=O)c1cc2ccccc2o1`, the IC50 was found to be 29.6 µM.

Turning to `CCOC(=O)/C(O)=C/C(=O)c1ccccc1F`, the IC50 is 12.4 µM.

For the compound `O=C(O)/C(O)=C/C(=O)c1nccs1`, the IC50 turned out to be 30.4 µM.

As for `Cc1csc(C(=O)/C=C(\O)C(=O)O)c1`, the IC50 stood at 32.7 µM.

Regarding `O=C(O)/C(O)=C/C(=O)c1ccc(F)cc1F`, the IC50 was 2.4 µM.

As for `O=C(O)/C(O)=C/C(=O)c1cccs1`, the IC50 was found to be 17.3 µM.

As to `CCOC(=O)/C(O)=C/C(=O)c1n[nH]c2ccccc12`, the half-inhibitory concentration (IC50) stood at 38.4 µM.

With `O=C(O)/C(O)=C/C(=O)c1ccc(I)s1`, the IC50 worked out at 63.9 µM.

On to `O=C(O)/C(O)=C/C(=O)c1n[nH]c2ccccc12`, for which the IC50 worked out at 24.7 µM.

Consider `O=C(O)/C(O)=C/C(=O)c1ccccc1F`, for which the IC50 came out at 14.9 µM.

Regarding `O=C(O)/C(O)=C/C(=O)c1cccc(-c2nnn[nH]2)c1`, the IC50 is 5.2 µM.

Regarding `O=C(O)/C(O)=C/C(=O)c1ccc(Cl)s1`, the IC50 came to 25.5 µM.

With `O=C(O)/C(O)=C/C(=O)c1ccc[nH]1`, the IC50 came to 21.7 µM.

Take `O=C(O)/C(O)=C/C(=O)c1ccccc1[N+](=O)[O-]`: the IC50 amounted to 11.3 µM.

Turning to `O=C(O)/C(O)=C/C(=O)c1cccc(F)c1`, the IC50 came to 49.9 µM.
